In ChEMBL document CHEMBL1124752, “Cyclobut-A and cyclobut-G: broad-spectrum antiviral agents with potential utility for the therapy of AIDS” (J Med Chem, 1990):
Values after ≈ are worked out from the molar mass of the structure shown.

Legend:
Human betaherpesvirus 5 [1] = assay: In vitro antiviral activity tested against HCMV, EC strain by plaque reduction assay in human foreskin fibroblasts.; assay type: functional
Murid betaherpesvirus 1 [2] = assay: Number of survivors per number of systemic MCMV infected mice treated with 33.4 mg/kg per day; 15/15; assay type: functional
Murid betaherpesvirus 1 [3] = assay: Number of survivors per number of systemic MCMV infected mice treated with 3.8 mg/kg per day; 10/15; assay type: functional
Murid betaherpesvirus 1 [4] = assay: Tested for the effective dose required to inhibit systemic MCMV in infected mice; assay type: functional
Human betaherpesvirus 5 [5] = assay: In vitro antiviral activity tested against HCMV, CH strain by plaque reduction assay in human foreskin fibroblasts.; assay type: functional
Human betaherpesvirus 5 [6] = assay: In vitro antiviral activity tested against HCMV, AD169 strain by plaque reduction assay in human foreskin fibroblasts.; assay type: functional
Human betaherpesvirus 5 [7] = assay: In vitro antiviral activity tested against HCMV, Davis strain by plaque reduction assay in human foreskin fibroblasts.; assay type: functional
Murid betaherpesvirus 1 [8] = assay: Tested for mean day to death of nonsurvivors against systemic MCMV infection in mice at 1.9 mg/kg per day; assay type: functional
Murid betaherpesvirus 1 [9] = assay: Number of survivors per number of systemic MCMV infected mice treated with 11.2 mg/kg per day; 15/15; assay type: functional
Murid betaherpesvirus 1 [10] = assay: In vitro antiviral activity tested against MCMV Smith strain by plaque reduction assay in mouse embryo fibroblasts.; details: read-out: ED50 (the source's name)
Murid betaherpesvirus 1 [11] = assay: In vitro antiviral activity tested against MCMV Smith strain by plaque reduction assay in mouse embryo fibroblasts.; assay type: functional; details: read-out: ID50 (the source's name)
Human betaherpesvirus 5 [12] = assay: In vitro antiviral activity tested against HCMV, LA strain by plaque reduction assay in human foreskin fibroblasts.; assay type: functional
[13] = read-out: ED50 (the source's name)
[14] = read-out: ID50 (the source's name)

## Nc1nc2c(ncn2COC(CO)CO)c(=O)[nH]1 [GANCICLOVIR]
Human betaherpesvirus 5 [1]; [13]
  EC50: 2.8 µg/mL (≈ 11 µM)
Human betaherpesvirus 5 [1]; [14]
  IC50: > 100 µg/mL
Murid betaherpesvirus 1 [2]
  Survivors / treated: 15
Murid betaherpesvirus 1 [3]
  Survivors / treated: 10
Murid betaherpesvirus 1 [4]
  ED50: < 1.9 mg/kg/day
Human betaherpesvirus 5 [5]; [13]
  EC50: 3.1 µg/mL (≈ 12.1 µM)
Human betaherpesvirus 5 [5]; [14]
  IC50: > 100 µg/mL
Human betaherpesvirus 5 [6]; [13]
  EC50: 2.7 µg/mL (≈ 10.6 µM)
Human betaherpesvirus 5 [6]; [14]
  IC50: > 100 µg/mL
Human betaherpesvirus 5 [7]; [13]
  EC50: 3.6 µg/mL (≈ 14.1 µM)
Human betaherpesvirus 5 [7]; [14]
  IC50: > 100 µg/mL
Murid betaherpesvirus 1 [8]
  MDD: 7.6
Murid betaherpesvirus 1 [9]
  Survivors / treated: 15
Murid betaherpesvirus 1 [10]
  EC50: 1 µg/mL (≈ 3.92 µM)
Murid betaherpesvirus 1 [11]
  IC50: > 100 µg/mL
Human betaherpesvirus 5 [12]; [13]
  EC50: 2.4 µg/mL (≈ 9.4 µM)
Human betaherpesvirus 5 [12]; [14]
  IC50: > 100 µg/mL
